Laboratory results taken from US8440698B2, “3-(4-((1H-imidazol-1-yl)methyl)phenyl)-5-aryl-1,2,4-oxadiazole derivatives as sphingosine-1 phosphate receptors modulators” (Allergan, Inc., priority 2010, dated 2013).

Target: T1, human S1P1 receptor (Homo sapiens, UniProt P21453)
T1 construct: expressed in transfected cells; membranes used
Experiment: GTP γ35S binding assay for S1P1 activity
Type: biochemical
Conditions: for Emax at 5 µM: intrinsic activity at 5 μM, read-out: % S1P1 STIMULATION @ 5 μM; for EC50: membranes of cells stably expressing S1P1, test concentrations 0.08 to 5,000 nM, read-out: S1P1 GTPγ^35S EC50
Description: Novel compounds were synthesized and tested for S1P1 activity using the GTP γ^35S binding assay. These compounds may be assessed for their ability to activate or block activation of the human S1P1 receptor in cells stably expressing the S1P1 receptor. GTP γ^35S binding was measured in the medium containing (mM) HEPES 25, pH 7.4, MgCl2 10, NaCl 100, dithitothreitol 0.5, digitonin 0.003%, 0.2 nM GTP γ^35S, and 5 μg membrane protein in a volume of 150 μl. Test compounds were included in the concentration range from 0.08 to 5,000 nM unless indicated otherwise. Membranes were incubated with 100 μM 5′-adenylylimmidodiphosphate for 30 min, and subsequently with 10 μM GDP for 10 min on ice. Drug solutions and membrane were mixed, and then reactions were initiated by adding GTP γ^35S and continued for 30 min at 25° C. Reaction mixtures were filtered over Whatman GF/B filters under vacuum, and washed three times with 3 mL of ice-cold buffer (HEPES 25, pH7.4, MgCl2 10 and NaCl 100). Filters were dried and mixed with scintillant, and counted for ^35S activity using a β-counter. Agonist-induced GTP γ^35S binding was obtained by subtracting that in the absence of agonist. Binding data were analyzed using a non-linear regression method. In case of antagonist assay, the reaction mixture contained 10 nM S1P in the presence of test antagonist at concentrations ranging from 0.08 to 5000 nM.

T1 sequence (P21453 whole entry): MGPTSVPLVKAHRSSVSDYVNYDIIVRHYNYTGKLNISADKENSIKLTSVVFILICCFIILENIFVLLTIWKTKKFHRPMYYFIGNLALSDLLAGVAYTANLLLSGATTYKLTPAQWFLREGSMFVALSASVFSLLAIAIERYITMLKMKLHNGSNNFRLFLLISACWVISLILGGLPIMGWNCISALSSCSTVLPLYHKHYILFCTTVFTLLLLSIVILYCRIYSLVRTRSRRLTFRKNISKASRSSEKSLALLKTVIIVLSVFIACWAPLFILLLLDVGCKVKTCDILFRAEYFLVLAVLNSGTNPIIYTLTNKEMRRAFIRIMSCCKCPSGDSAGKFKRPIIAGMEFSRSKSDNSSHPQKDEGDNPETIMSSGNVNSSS

Row | Structure (SMILES) | Emax at 5 µM | EC50
1 | Cc1cc(-c2nc(-c3ccc(Cn4ccnc4)cc3C(F)(F)F)no2)ccc1OC(C)C [3-[4-(1H-imidazol-1-ylmethyl)-2-(trifluoromethyl)phenyl]-5-(4-isopropoxy-3-methylphenyl)-1,2,4-oxadiazole] | 7.4% | –
2 | CC(C)Oc1ccc(-c2nc(-c3ccc(Cn4ccnc4)cc3C(F)(F)F)no2)cc1Br [5-(3-Bromo-4-isopropoxy-phenyl)-3-(4-imidazol-1-ylmethyl-2-trifluoromethyl-phenyl)-[1,2,4]oxadiazole] | 100% | 102 nM
3 | CC(C)Oc1ccc(-c2nc(-c3ccc(Cn4ccnc4)cc3C(F)(F)F)no2)cc1C(F)(F)F [3-[4-(1H-imidazol-1-ylmethyl)-2-(trifluoromethyl)phenyl]-5-[4-isopropoxy-3-(trifluoromethyl)phenyl]-1,2,4-oxadiazole] | 80.9% | 62.4 nM
4 | CC(C)Oc1ccc(-c2nc(-c3ccc(Cn4ccnc4)cc3Cl)no2)cc1Br [5-(3-bromo-4-isopropoxyphenyl)-3-[2-chloro-4-(1H-imidazol-1-ylmethyl)phenyl]-1,2,4-oxadiazole] | 102% | 29.7 nM
5 | Cc1cc(Cn2ccnc2)ccc1-c1noc(-c2ccc(OC3CC3)c(Br)c2)n1 [Compound 2, 5-(3-Bromo-4-cyclopropoxy-phenyl)-3-(4-imidazol-1-ylmethyl-2-methyl-phenyl)-[1,2,4]oxadiazole] | 96% | 32 nM
6 | CC(C)COc1ccc(-c2nc(-c3ccc(Cn4ccnc4)cc3)no2)cc1Br [Compound 9, 5-(3-Bromo-4-isobutoxy-phenyl)-3-(4-imidazol-1-ylmethyl-phenyl)-[1,2,4]oxadiazole] | 86.2% | 28.6 nM
7 | CC1CCCCN1c1ccc(-c2nc(-c3ccc(Cn4ccnc4)cc3)no2)cc1C#N (stereo not shown) [5-{3-[4-(1H-imidazol-1-ylmethyl)phenyl]-1,2,4-oxadiazol-5-yl}-2-(2-methylpiperidin-1-yl)benzonitrile] | 99.9% | 130 nM
8 | CC(C)Oc1ccc(-c2nc(-c3ccc(Cn4ccnc4)cc3Cl)no2)cc1C#N [5-{3-[2-chloro-4-(1H-imidazol-1-ylmethyl)phenyl]-1,2,4-oxadiazol-5-yl}-2-isopropoxybenzonitrile] | 94.9% | 4.56 nM
9 | CC(C)COc1ccc(-c2nc(-c3ccc(Cn4ccnc4)cc3)no2)cc1C#N [Compound 8, 5-[3-(4-Imidazol-1-ylmethyl-phenyl)-[1,2,4]oxadiazol-5-yl]-2-isobutoxy-benzonitrile] | 75.9% | 62 nM
10 | CC(C)Oc1ccc(-c2nc(-c3ccc(Cn4ccnc4)cc3Cl)no2)cc1[N+](=O)[O-] [3-[2-chloro-4-(1H-imidazol-1-ylmethyl)phenyl]-5-(4-isopropoxy-3-nitrophenyl)-1,2,4-oxadiazole] | 92.3% | 8.79 nM
11 | CC(C)Oc1ccc(-c2nc(-c3ccc(Cn4ccnc4)cc3C(F)(F)F)no2)cc1C#N [5-[3-(4-Imidazol-1-ylmethyl-2-trifluoromethyl-phenyl)-[1,2,4]oxadiazol-5-yl]-2-isopropoxy-benzonitrile] | 97.6% | 5.22 nM
12 | CC(C)Oc1ccc(-c2nc(-c3ccc(Cn4ccnc4)cc3)no2)cc1C(F)(F)F [Compound 3, 3-(4-Imidazol-1-ylmethyl-phenyl)-5-(4-isopropoxy-3-trifluoromethyl-phenyl)-[1,2,4]oxadiazole] | 95.6% | 0.51 nM
13 | CC(C)COc1ccc(-c2nc(-c3ccc(Cn4ccnc4)cc3)no2)cc1C(F)(F)F [Compound 4, 3-(4-Imidazol-1-ylmethyl-phenyl)-5-(4-isobutoxy-3-trifluoromethyl-phenyl)-[1,2,4]oxadiazole] | 72.2% | 998 nM
14 | CC(C)Oc1ccc(-c2nc(-c3ccc(Cn4ccnc4)cc3Cl)no2)cc1C(F)(F)F [3-[2-chloro-4-(1H-imidazol-1-ylmethyl)phenyl]-5-[4-isopropoxy-3-(trifluoromethyl)phenyl]-1,2,4-oxadiazole] | 79.6% | 3.55 nM
15 | FC(F)(F)c1cc(Cn2ccnc2)ccc1-c1noc(-c2ccc(OC3CC3)c(Br)c2)n1 [5-[3-bromo-4-(cyclopropyloxy)phenyl]-3-[4-(1H-imidazol-1-ylmethyl)-2-(trifluoromethyl)phenyl]-1,2,4-oxadiazole] | 89.6% | 119 nM
16 | CC(C)COc1ccc(-c2nc(-c3ccc(Cn4ccnc4)cc3C(F)(F)F)no2)cc1Br [5-(3-bromo-4-isobutoxyphenyl)-3-[4-(1H-imidazol-1-ylmethyl)-2-(trifluoromethyl)phenyl]-1,2,4-oxadiazole] | 98.3% | 144 nM
17 | CC(C)Oc1ccc(-c2nc(-c3ccc(Cn4ccnc4)cc3C(F)(F)F)no2)cc1[N+](=O)[O-] [3-[4-(1H-imidazol-1-ylmethyl)-2-(trifluoromethyl)phenyl]-5-(4-isopropoxy-3-nitrophenyl)-1,2,4-oxadiazole] | 79.4% | 6.37 nM
18 | Brc1cc(-c2nc(-c3ccc(Cn4ccnc4)cc3)no2)ccc1OC1CC1 [Compound 1, 5-(3-Bromo-4-cyclopropoxy-phenyl)-3-(4-imidazol-1-ylmethyl-phenyl)-[1,2,4]oxadiazole] | 99.9% | 14.4 nM

The next lines start with the values.

Row | Emax at 5 µM | EC50 | Structure (SMILES)
19 | 93.9% | 0.92 nM | CC(C)Oc1ccc(-c2nc(-c3ccc(Cn4ccnc4)cc3)no2)cc1Br [Compound 14, 5-(3-Bromo-4-isopropoxy-phenyl)-3-(4-imidazol-1-ylmethyl-phenyl)-[1,2,4]oxadiazole]
20 | 118% | 3.24 nM | CC(C)Oc1ccc(-c2nc(-c3ccc(Cn4ccnc4)cc3)no2)cc1[N+](=O)[O-] [Compound 7, 3-(4-Imidazol-1-ylmethyl-phenyl)-5-(4-isopropoxy-3-nitro-phenyl)-[1,2,4]oxadiazole]
21 | 94.6% | 19.8 nM | Cc1cc(-c2nc(-c3ccc(Cn4ccnc4)cc3C)no2)ccc1OC(C)C [Compound 18, 3-(4-Imidazol-1-ylmethyl-2-methyl-phenyl)-5-(4-isopropoxy-3-methyl-phenyl)-[1,2,4]oxadiazole]
22 | 99.8% | 2.79 nM | CC(C)Oc1ccc(-c2nc(-c3ccc(Cn4ccnc4)cc3)no2)cc1Cl [Compound 16, 5-(3-Chloro-4-isopropoxy-phenyl)-3-(4-imidazol-1-ylmethyl-phenyl)-[1,2,4]oxadiazole]
23 | 91.8% | 149 nM | FC(F)(F)c1cc(-c2nc(-c3ccc(Cn4ccnc4)cc3)no2)ccc1OC1CCCCC1 [Compound 5, 5-(4-Cyclohexyloxy-3-trifluoromethyl-phenyl)-3-(4-imidazol-1-ylmethyl-phenyl)-[1,2,4]oxadiazole]
24 | 109% | 19.6 nM | Cc1cc(Cn2ccnc2)ccc1-c1noc(-c2ccc(OC(C)C)c(Br)c2)n1 [Compound 15, 5-(3-Bromo-4-isopropoxy-phenyl)-3-(4-imidazol-1-ylmethyl-2-methyl-phenyl)-[1,2,4]oxadiazole]
25 | 92.8% | 453 nM | CC(C)Oc1ccc(-c2nc(-c3ccc(Cn4ccnc4)cc3)no2)cc1 [Compound 11, 3-(4-Imidazol-1-ylmethyl-phenyl)-5-(4-isopropoxy-phenyl)-[1,2,4]oxadiazole]
26 | 95.5% | 3.38 nM | Cc1cc(Cn2ccnc2)ccc1-c1noc(-c2ccc(OC(C)C)c(C(F)(F)F)c2)n1 [Compound 6, 3-(4-Imidazol-1-ylmethyl-2-methyl-phenyl)-5-(4-isopropoxy-3-trifluoromethyl-phenyl)-[1,2,4]oxadiazole]
27 | 79.8% | 543 nM | CC(C)Cc1ccc(-c2nc(-c3ccc(Cn4ccnc4)cc3)no2)cc1 [Compound 10, 3-(4-Imidazol-1-ylmethyl-phenyl)-5-(4-isobutyl-phenyl)-[1,2,4]oxadiazole]
28 | 94.6% | 3.31 nM | CC(C)Oc1ccc(-c2nc(-c3ccc(Cn4ccnc4)cc3)no2)cc1C#N [Compound 12, 5-[3-(4-Imidazol-1-ylmethyl-phenyl)-[1,2,4]oxadiazol-5-yl]-2-isopropoxy-benzonitrile]
29 | 102% | 8.98 nM | Cc1cc(Cn2ccnc2)ccc1-c1noc(-c2ccc(OC(C)C)c([N+](=O)[O-])c2)n1 [Compound 19, 3-(4-Imidazol-1-ylmethyl-2-methyl-phenyl)-5-(4-isopropoxy-3-nitro-phenyl)-[1,2,4]oxadiazole]
30 | 96.4% | 4.76 nM | Cc1cc(Cn2ccnc2)ccc1-c1noc(-c2ccc(OC(C)C)c(C#N)c2)n1 [Compound 13, 5-[3-(4-Imidazol-1-ylmethyl-2-methyl-phenyl)-[1,2,4]oxadiazol-5-yl]-2-isopropoxy-benzonitrile]
31 | 133% | 10.3 nM | Cc1cc(-c2nc(-c3ccc(Cn4ccnc4)cc3)no2)ccc1OC(C)C [Compound 17, 3-(4-Imidazol-1-ylmethyl-phenyl)-5-(4-isopropoxy-3-methyl-phenyl)-[1,2,4]oxadiazole]
